As usually defined, the IC50 is the midpoint of a concentration-inhibition curve. The low end stands for inhibition by little substance, the high end for a need for much substance.

Chain of DYRK1B (Q9Y463 whole entry): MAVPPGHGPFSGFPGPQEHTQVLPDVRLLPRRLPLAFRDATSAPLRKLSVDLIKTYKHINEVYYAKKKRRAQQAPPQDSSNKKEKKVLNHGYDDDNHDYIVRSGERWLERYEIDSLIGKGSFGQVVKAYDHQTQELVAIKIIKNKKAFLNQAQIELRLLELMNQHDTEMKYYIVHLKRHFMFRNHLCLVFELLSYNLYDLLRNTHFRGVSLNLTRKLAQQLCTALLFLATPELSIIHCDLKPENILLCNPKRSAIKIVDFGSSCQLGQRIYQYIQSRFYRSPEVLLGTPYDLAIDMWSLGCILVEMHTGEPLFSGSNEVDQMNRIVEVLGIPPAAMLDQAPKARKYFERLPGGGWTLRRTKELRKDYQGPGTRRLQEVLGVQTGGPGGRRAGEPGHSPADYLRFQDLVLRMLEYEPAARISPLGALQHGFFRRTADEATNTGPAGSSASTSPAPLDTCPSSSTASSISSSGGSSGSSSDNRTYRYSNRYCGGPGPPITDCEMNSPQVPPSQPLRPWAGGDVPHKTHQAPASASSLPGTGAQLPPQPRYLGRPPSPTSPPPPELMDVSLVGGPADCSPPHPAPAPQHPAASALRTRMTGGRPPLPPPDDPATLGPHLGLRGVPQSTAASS

The target of this assay is DYRK1B (Homo sapiens (Human), UniProt Q9Y463). Briefly: DYRK1B Kinase Assay (33P ATP, DYRKtide substrate, Reaction Biology Corp.). The assay is classed as biochemical. As to conditions: 0.3 nM DYRK1B, 20 μM DYRKtide, 10 μM ATP, 25° C., 120 min. How it is done:
The assay was carried out by Reaction Biology Corp., […], Pa., USA according to specifications by Reaction Biology Corp., as detailed herein below and further described in Anastassiadis et al., Nature Biotechnology, 29 (2011) 1039-1045. The substrate DYRKtide (synthetic peptide RRRFRPASPLRGPPK) was dissolved in freshly prepared Base Reaction Buffer (20 mM Hepes (pH 7.5), 10 mM MgCl2, 1 mM EGTA, 0.02% Brij35, 0.02 mg/ml BSA, 0.1 mM Na3VO4, 2 mM DTT, 1% DMSO) at a concentration of 20 μM. DYRK1B was added to the substrate solution in a concentration of 0.3 nM and gently mixed. Dilution series of the compounds according to the present invention in DMSO were prepared. Each dilution was added to a batch of the above reaction mix, followed 20 min later by addition of a mixture of ATP and ^33P ATP (specific activity 0.01 μCi/μl final) to a final concentration of 10 μM. Reactions were carried out at 25° C. for 120 min, followed by spotting the reactions onto P81 ion exchange filter paper. Unbound phosphate was removed by extensive washing of the filters in 0.75% phosphoric acid. […] IC50 values and curve fits were obtained using Prism (Graph Pad Software). DYRK1B used in the above assays are further described in the below table: [table] Exemplary compound dilution series, final concentrations of compound in the assay vessel; the individual concentrations and the range of concentrations covered by the dilution series may differ for each compound, as long as enough data points are obtained to determine the compound's IC50: DYRK 1[…].
`COC(=O)c1n[nH]c(NC(=O)c2csc(-c3ccc4c(c3)CCO4)n2)n1` [Compound 15, Methyl 5-(2-(2,3-dihydrobenzofuran-5-yl)thiazole-4-carboxamido)-1H-1,2,4-triazole-3-carboxylate] yielded an IC50 of 152 nM. Compound `O=C(Nc1ncccc1O)c1csc(-c2ccc3c(c2)CCO3)n1` [Compound 16, 2-(2,3-Dihydrobenzofuran-5-yl)-N-(3-hydroxypyridin-2-yl)thiazole-4-carboxamide] showed an IC50 of 177 nM.

In turn, `N#Cc1ccnc(NC(=O)c2csc(-c3ccc4c(c3)CCO4)n2)c1` [Compound 18, N-(4-Cyanopyridin-2-yl)-2-(2,3-dihydrobenzofuran-5-yl)thiazole-4-carboxamide] gave an IC50 of 19.5 nM. Against the preceding compound, the IC50 is about 9.1-fold lower. Compound `CSc1nnc(NC(=O)c2csc(-c3ccc4c(c3)CCO4)n2)[nH]1` [Compound 21, 2-(2,3-Dihydrobenzofuran-5-yl)-N-(5-(methylthio)-4H-1,2,4-triazol-3-yl)thiazole-4-carboxamide] returned an IC50 of 18.3 nM. As for `CC(C)Sc1n[nH]c(NC(=O)c2csc(-c3ccc4c(c3)CCO4)n2)n1` [Compound 24, 2-(2,3-Dihydrobenzofuran-5-yl)-N-(3-(isopropylthio)-1H-1,2,4-triazol-5-yl)thiazole-4-carboxamide], the IC50 was found to be 17.8 nM.

`CCCSc1n[nH]c(NC(=O)c2csc(-c3ccc4c(c3)CCO4)n2)n1` [Compound 30, 2-(2,3-Dihydrobenzofuran-5-yl)-N-(3-(propylthio)-1H-1,2,4-triazol-5-yl)thiazole-4-carboxamide] yielded an IC50 of 7.97 nM. Compound `O=C(Nc1nnc(C(=O)O)[nH]1)c1csc(-c2ccc3c(c2)CCO3)n1` [Compound 31, 5-(2-(2,3-Dihydrobenzofuran-5-yl)thiazole-4-carboxamido)-4H-1,2,4-triazole-3-carboxylic acid] registered an IC50 of 68.1 nM. The value for `O=C(Nc1nc(SCc2ccc(Cl)cc2)n[nH]1)c1csc(-c2ccc3c(c2)CCO3)n1` [Compound 33, N-(3-((4-Chlorobenzyl)thio)-1H-1,2,4-triazol-5-yl)-2-(2,3-dihydrobenzofuran-5-yl)thiazole-4-carboxamide] was 337 nM; that for `CC(C)CSc1n[nH]c(NC(=O)c2csc(-c3ccc4c(c3)CCO4)n2)n1` [Compound 34, 2-(2,3-Dihydrobenzofuran-5-yl)-N-(3-(isobutylthio)-1H-1,2,4-triazol-5-yl)thiazole-4-carboxamide] was 38.1 nM.

As for `O=C(Nc1nc(CCc2ccccc2)n[nH]1)c1csc(-c2ccc3c(c2)CCO3)n1` [Compound 36, 2-(2,3-Dihydrobenzofuran-5-yl)-N-(3-phenethyl-1H-1,2,4-triazol-5-yl)thiazole-4-carboxamide], the IC50 turned out to be 112 nM. As for `O=C(Nc1nc(SCCc2ccccc2)n[nH]1)c1csc(-c2ccc3c(c2)CCO3)n1` [Compound 37, 2-(2,3-Dihydrobenzofuran-5-yl)-N-(3-(phenethylthio)-1H-1,2,4-triazol-5-yl)thiazole-4-carboxamide], the figure is 56 nM; as for `N#CCSc1n[nH]c(NC(=O)c2csc(-c3ccc4c(c3)CCO4)n2)n1` [Compound 38, N-(3-((Cyanomethyl)thio)-1H-1,2,4-triazol-5-yl)-2-(2,3-dihydrobenzofuran-5-yl)thiazole-4-carboxamide], 3.97 nM.

The compound `C=CCSc1n[nH]c(NC(=O)c2csc(-c3ccc4c(c3)CCO4)n2)n1` [Compound 39, N-(3-(Allylthio)-1H-1,2,4-triazol-5-yl)-2-(2,3-dihydrobenzofuran-5-yl)thiazole-4-carboxamide] had an IC50 of 11.9 nM. With `O=C(Nc1nc2ccc(CN3CCOCC3)cc2s1)c1csc(-c2ccc3c(c2)CCO3)n1` [Compound 40, 2-(2,3-Dihydrobenzofuran-5-yl)-N-(6-(morpholinomethyl)benzo[d]thiazol-2-yl)thiazole-4-carboxamide], the midpoint of inhibition, the IC50, lay at 15.7 nM. As for `O=C(Nc1nc(-c2ccncc2)n[nH]1)c1csc(-c2ccc3c(c2)CCO3)n1` [Compound 42, 2-(2,3-Dihydrobenzofuran-5-yl)-N-(3-(pyridin-4-yl)-1H-1,2,4-triazol-5-yl)thiazole-4-carboxamide], the figure is 2.06 nM. Consider `CS(=O)(=O)c1n[nH]c(NC(=O)c2csc(-c3ccc4c(c3)CCO4)n2)n1` [Compound 43, 2-(2,3-Dihydrobenzofuran-5-yl)-N-(3-(methylsulfonyl)-1H-1,2,4-triazol-5-yl)thiazole-4-carboxamide], for which the IC50 is 535 nM. The value for `O=C(Nc1nc2cc(C(=O)c3cccs3)ccc2[nH]1)c1csc(-c2ccc3c(c2)CCO3)n1` [Compound 48, 2-(2,3-Dihydro-1-benzofuran-5-yl)-N-[5-(thiophene-2-carbonyl)-1H-1,3-benzodiazol-2-yl]-1,3-thiazole-4-carboxamide] was 5.57 nM. Regarding `O=C(Nc1nc2cc(C(=O)c3ccc[nH]3)ccc2[nH]1)c1csc(-c2ccc3c(c2)CCO3)n1` [Compound 49, 2-(2,3-Dihydro-1-benzofuran-5-yl)-N-[5-(H-pyrrole-2-carbonyl)-1H-1,3-benzodiazol-2-yl]-1,3-thiazole-4-carboxamide], inhibition was half-maximal at 6.63 nM (IC50). Take `O=C(Nc1nc2ccccc2[nH]1)c1csc(-c2ccc3c(c2)CCO3)n1` [Compound 50, N-(1H-1,3-Benzodiazol-2-yl)-2-(2,3-dihydro-1-benzofuran-5-yl)-1,3-thiazole-4-carboxamide]: inhibition was half-maximal at 6.73 nM (IC50). `O=C(Nc1nc2ccc(C(=O)N3CCOCC3)cc2s1)c1csc(-c2ccc3c(c2)CCO3)n1` [Compound 51, 2-(2,3-Dihydro-1-benzofuran-5-yl)-N-[6-(morpholine-4-carbonyl)-1,3-benzothiazol-2-yl]-1,3-thiazole-4-carboxamide]: half-maximal inhibition (IC50) was put at 9.17 nM.

Turning to `O=C(Nc1nnc(N2CCCCC2)s1)c1csc(-c2ccc3c(c2)CCO3)n1` [Compound 52, 2-(2,3-Dihydro-1-benzofuran-5-yl)-N-[5-(piperidin-1-yl)-1,3,4-thiadiazol-2-yl]-1,3-thiazole-4-carboxamide], the IC50 worked out at 12.6 nM. As for `CCOC(=O)C1CCN(c2nnc(NC(=O)c3csc(-c4ccc5c(c4)CCO5)n3)s2)CC1` [Compound 53, Ethyl 1-{5-[2-(2,3-dihydro-1-benzofuran-5-yl)-1,3-thiazole-4-amido]-1,3,4-thiadiazol-2-yl}piperidine-4-carboxylate], the figure is 14.4 nM. With `Cn1c(NC(=O)c2csc(-c3ccc4c(c3)CCO4)n2)nc2ccccc21` [Compound 54, 2-(2,3-Dihydro-1-benzofuran-5-yl)-N-(1-methyl-1H-1,3-benzodiazol-2-yl)-1,3-thiazole-4-carboxamide], inhibition was half-maximal at 17.6 nM (IC50). As for `CCOC(=O)c1c[nH]nc1NC(=O)c1csc(-c2ccc3c(c2)CCO3)n1` [Compound 55, Ethyl 3-[2-(2,3-dihydro-1-benzofuran-5-yl)-1,3-thiazole-4-amido]-1H-pyrazole-4-carboxylate], the figure is 20.6 nM; as for `O=C(Nc1nnc(N2CCOCC2)s1)c1csc(-c2ccc3c(c2)CCO3)n1` [Compound 56, 2-(2,3-Dihydro-1-benzofuran-5-yl)-N-[5-(morpholin-4-yl)-1,3,4-thiadiazol-2-yl]-1,3-thiazole-4-carboxamide], 21.7 nM. As for `CN1CCN(c2nnc(NC(=O)c3csc(-c4ccc5c(c4)CCO5)n3)s2)CC1` [Compound 57, 2-(2,3-Dihydro-1-benzofuran-5-yl)-N-[5-(4-methylpiperazin-1-yl)-1,3,4-thiadiazol-2-yl]-1,3-thiazole-4-carboxamide], the figure is 26.4 nM. The value for `Cc1cnc(NC(=O)c2csc(-c3ccc4c(c3)CCO4)n2)s1` [Compound 58, 2-(2,3-Dihydro-1-benzofuran-5-yl)-N-(5-methyl-1,3-thiazol-2-yl)-1,3-thiazole-4-carboxamide] was 27.6 nM. With `O=C(Nc1nnc(-c2ccncc2)s1)c1csc(-c2ccc3c(c2)CCO3)n1` [Compound 59, 2-(2,3-Dihydro-1-benzofuran-5-yl)-N-[5-(pyridin-4-yl)-1,3,4-thiadiazol-2-yl]-1,3-thiazole-4-carboxamide], the midpoint of inhibition, the IC50, lay at 31.5 nM. The value for `O=C(c1ccccc1)c1ccc2[nH]c(NC(=O)c3csc(-c4ccc5c(c4)CCO5)n3)nc2c1` [Compound 60, N-(5-Benzoyl-1H-1,3-benzodiazol-2-yl)-2-(2,3-dihydro-1-benzofuran-5-yl)-1,3-thiazole-4-carboxamide] was 38.3 nM. As to `CCOC(=O)CSc1n[nH]c(NC(=O)c2csc(-c3ccc4c(c3)CCO4)n2)n1` [Compound 61, Ethyl 2-({5-[2-(2,3-dihydro-1-benzofuran-5-yl)-1,3-thiazole-4-amido]-1H-1,2,4-triazol-3-yl}sulfanyl)acetate], the IC50 was 39.1 nM. The IC50 values of the last two compounds are within 1.5-fold of each other. With `O=C(Nc1cc[nH]n1)c1csc(-c2ccc3c(c2)CCO3)n1` [Compound 62, 2-(2,3-Dihydro-1-benzofuran-5-yl)-N-(1H-pyrazol-3-yl)-1,3-thiazole-4-carboxamide], it took 42.4 nM to reach half-maximal inhibition (IC50).

In turn, `O=C(Nc1nc[nH]n1)c1csc(-c2ccc3c(c2)CCO3)n1` [Compound 63, 2-(2,3-Dihydro-1-benzofuran-5-yl)-N-(1H-1,2,4-triazol-3-yl)-1,3-thiazole-4-carboxamide] returned a 50% inhibitory concentration (IC50) of 47.1 nM.

Source of the values: patent publication US10005769B2, “2,3-dihydrobenzofuran-5YL compounds as DYRK kinase inhibitors” (4SC DISCOVERY GMBH, priority 2013, dated 2018).
